“Also recorded” adds a separate entry of the source. Like-named read-outs stand apart in the source and are kept apart here.
Legend:
[1] = tested on: F-21CTA-T (DNA, G4) AGGGCTAGGGCTAGGGCTAGGG; test: FRET-melting; details: 1 mM KCl, 99 mM LiCl; 10 mM lithium cacodylate pH 7.3; 1 µM compound, 0.2 µM DNA
[2] = tested on: F-21-T (DNA, G4) GGGTTAGGGTTAGGGTTAGGG; test: FRET-melting; details: 10 mM KCl, 90 mM LiCl; 10 mM lithium cacodylate pH 7.3; 1 µM compound, 0.2 µM DNA
[3] = tested on: F-CEB25-WT-T (DNA, G4) AGGGTGGGTGTAAGTGTGGGTGGGT; test: FRET-melting; details: 1 mM KCl, 99 mM LiCl; 10 mM lithium cacodylate pH 7.3; 1 µM compound, 0.2 µM DNA
[4] = tested on: F-myc-T (DNA, G4) TGAGGGTGGGTAGGGTGGGTAA; test: FRET-melting; details: 1 mM KCl, 99 mM LiCl; 10 mM lithium cacodylate pH 7.3; 1 µM compound, 0.2 µM DNA
[5] = tested on: c-myc (myc22) (DNA, G4) TGAGGGTGGGTAGGGTGGGTAA; test: G4-FID, thiazole orange displacement; details: 100 mM KCl; 10 mM lithium cacodylate pH 7.3, 1% DMSO; thiazole orange displaced; 1 µM compound, 0.25 µM DNA
[6] = tested on: ds26 (DNA, duplex) CAATCGGATCGAATTCGATCCGATTG; test: G4-FID, thiazole orange displacement; details: 100 mM KCl; 10 mM lithium cacodylate pH 7.3, 1% DMSO; thiazole orange displaced; 1 µM compound, 0.25 µM DNA
[7] = tested on: 22AG (DNA, G4) AGGGTTAGGGTTAGGGTTAGGG; test: G4-FID, thiazole orange displacement; details: 100 mM KCl; 10 mM lithium cacodylate pH 7.3, 1% DMSO; thiazole orange displaced; 1 µM compound, 0.25 µM DNA
[8] = tested on: 21CTA (DNA, G4) AGGGCTAGGGCTAGGGCTAGGG; test: G4-FID, thiazole orange displacement; details: 100 mM KCl; 10 mM lithium cacodylate pH 7.3, 1% DMSO; thiazole orange displaced; 1 µM compound, 0.25 µM DNA
[9] = tested on: CEB25-WT (DNA, G4) AAGGGTGGGTGTAAGTGTGGGTGGGT; test: G4-FID, thiazole orange displacement; details: 100 mM KCl; 10 mM lithium cacodylate pH 7.3, 1% DMSO; thiazole orange displaced; 1 µM compound, 0.25 µM DNA
[10] = tested on: c-myc* (DNA, G4) TGAGGGTGGGTAGGGTGGGTAA; test: denaturing gel electrophoresis, 3'-exonuclease digestion; details: 100 mM KCl or KClO4; covalent; platination at T20/A21 and G2/A3; 18 h, 32 °C, 10 µM DNA
[11] = tested on: CEB25-WT minisatellite sequence G4; test: TO-PRO-3 G4-FID assay; format: binding; details: TO-PRO-3 2 eq, K+100 buffer
Description: (§1) For the G4-FID assay, the oligonucleotides were dissolved in K^+100 buffer (10 mM lithium cacodylate buffer pH 7.3, 100 mM KCl, 1% DMSO). Oligonucleotide concentrations were determined on the basis of their absorbance at 260 nm. For the fluorimetric titration, the oligonucleotides were dissolved in K^+100 buffer without DMSO. For the FRET-melting assay, the oligonucleotides were dissolved in K^+1 buffer (10 mM lithium cacodylate buffer pH 7.3, 1 mM KCl, 99 mM LiCl) except for F-21-T. F-21-T was dissolved in K^+10 buffer (10 mM lithium cacodylate buffer pH 7.3, 10 mM KCl, 90 mM LiCl).
(§2) Prior to use, all oligonucleotides were pretreated by heating at 95 °C for 5 min, then rapidly cooled to 4 °C to favor the intramolecular folding by kinetic trapping. Duplex-DNA ds26 was prepared by heating the self-complementary strand at 90 °C for 5 min in K^+1 buffer followed by a slow cooling over 6 h.
(§3) Each G4-FID assay was performed in a 96-well Non-Binding Surface black with black bottom polystyrene microplates (Corning). Every ligand was tested on a line of the microplate, in duplicate. The microplate was filled with (a) K^+100 solution (qs for 200 μL), (b) 10 μL of a solution of pre-folded oligonucleotides (5 μM) and fluorescent probe (TO/TO-PRO-3 (10 μM—2 eq) or PhenDV (7,5 µM—1.5 eq)), and (c) an extemporaneously prepared 5 μM ligand solution in K^+100 buffer (0 to 100 μL) along the line of the microplate, i.e., from column A to column H: 0, 0.125, 0.25, 0.375, 0.5, 0.625, 0.75, 1.0, 1.25, 1.5, 2.0, and 2.5 μM. After 5 min of orbital shaking at 500 rpm, fluorescence is measured using the following experimental parameters: positioning delay of 0.5 s, 20 flashes per well, emission/excitation filters for TO at 485/520, TO-PRO-3 at 620/670, and PhenDV at 355/520 gain adjusted at 80% of the fluorescence from the most fluorescent well (i.e., a well from column A for TO and a well from column H).
(§4) The percentage of TO displacement is calculated from the fluorescence intensity (F), using (1) % TO displacement=1−F/F0 where F0 is the fluorescence from the fluorescent probe bound to DNA without added ligand.
(§5) The PhenDV displacement is calculated from the fluorescence intensity F; F(ligand+probe), which refers to the fluorescence of the probe in presence of the ligand (without G4); and F0, which is the fluorescence without added ligand. The term F(ligand+probe) is necessary as the ligand can quench the fluorescence of the probe. The percentage of displacement is then plotted as a function of the concentration of the added ligand. The DNA affinity was evaluated by the concentration of ligand required to decrease the fluorescence of the probe by 50%, was noted DC50, and was determined after non-linear fitting of the displacement curve.

c-myc G4 [12] = test: TO-PRO-3 G4-FID assay; format: binding; details: TO-PRO-3 2 eq, K+100 buffer
Description: as §1, §2, §3, §4, §5

[13] = tested on: 22AG human telomeric sequence G4; test: TO-PRO-3 G4-FID assay; format: binding; details: TO-PRO-3 2 eq, K+100 buffer
Description: as §1, §2, §3, §4, §5

[14] = tested on: 21CTA human telomeric sequence variant G4; format: binding; details: PhenDV 1.5 eq, K+100 buffer
Description: as §1, §2, §3
(§6) In the case of PhenDV, the fluorescence of the unbound probe is not negligible. The percentage of displacement becomes (2) % PhenDV Displacement=F−F0/Fligand+probe−F0
as §5

[15] = tested on: c-myc (myc22) (DNA, G4) TGAGGGTGGGTAGGGTGGGTAA; test: G4-FID, PhenDV displacement; details: 100 mM KCl; 10 mM lithium cacodylate pH 7.3, 1% DMSO; PhenDV displaced; 1 µM compound
[16] = tested on: CEB25-WT minisatellite sequence G4; test: TO G4-FID assay; format: binding; details: TO 2 eq, K+100 buffer
Description: as §1, §2, §3, §4, §5

c-myc G4 [17] = test: TO G4-FID assay; format: binding; details: TO 2 eq, K+100 buffer
Description: as §1, §2, §3, §4, §5

[18] = tested on: 22AG human telomeric sequence G4; test: TO G4-FID assay; format: binding; details: TO 2 eq, K+100 buffer
Description: as §1, §2, §3, §4, §5

[19] = tested on: CEB25-WT minisatellite sequence G4; test: PhenDV G4-FID assay; format: binding; details: PhenDV 1.5 eq, K+100 buffer
Description: as §1, §2, §3, §6, §5

c-myc G4 [20] = test: PhenDV G4-FID assay; format: binding; details: PhenDV 1.5 eq, K+100 buffer
Description: as §1, §2, §3, §6, §5

[21] = tested on: 22AG human telomeric sequence G4; test: PhenDV G4-FID assay; format: binding; details: PhenDV 1.5 eq, K+100 buffer
Description: as §1, §2, §3, §6, §5

[22] = tested on: 21CTA human telomeric sequence variant G4; format: binding; details: K+100 buffer; for % of TO displacement at 1 µM of ligand: TO 2 eq; for % of TOPRO3 displacement at 1 µM of ligand: TO-PRO-3 2 eq
Description: as §1, §2, §3, §4, §5

[23] = tested on: G4-DNA structures (F-21-T, F-myc-T, F-21CTA-T, F-CEB25-WT-T); test: FRET-melting assay (ligand-induced stabilization); format: binding, human
Description: as §1, §2
The stabilization of the compounds with a quadruplex-structure was monitored via FRET-melting assay performed in 96-well plates on a real-time PCR apparatus 7900HT Fast Real-Time PCR System as follows: 5 min at 25 °C and then an increase of 0.5 °C every minute until 95 °C. Each experimental condition was tested and replicated in a volume of 25 μL for each sample. The FRET-melting assay was performed with three dual fluorescently labeled DNA oligonucleotide sequences oligonucleotides. The donor fluorophore was 6-carboxyfluorescein, FAM, and the acceptor fluorophore was 6-carboxytetramethylrhodamine, TAMRA. The 96-well plates (Applied Biosystems) were prepared by aliquoting the annealed DNA (0.2 μM in K^+1 or K^+10 buffer) into each well, followed by 1 μL of the ligand ([…] (5 eq) in DMSO). For competition experiments, duplex competitors were added to 200 nM quadruplex sequences at final concentrations of 3.0 μM (15 eq) and 10.0 μM (50 eq), with a total reaction volume of 25 μL, with the labeled oligonucleotide (0.2 μM) and the ligand (1 μM). Measurements were made with excitation at 492 nm and detection at 516 nm. The change in the melting temperature at 1.0 μm compound concentration, ΔTm (1.0 μM), was calculated from at least two experiments by subtraction of the blank from the averaged melting temperature of each compound (1.0 μM). The final analysis of the data was carried out using Origin Pro 8.6 data analysis.

[24] = tested on: G4 structures (22AG, c-myc, 21CTA, CEB25-WT); test: TO-PRO-3-G4-FID assay, G4 structures; format: binding
Description: as §1, §2, §3, §4, §5

[25] = tested on: CCD19Lu normal lung cell line; test: Cell growth (proliferation), 96 h treatment; format: cell-based, human
Description: (§7) The ovarian carcinoma cell lines and human normal lung cells were purchased from ATCC and were grown in complete RPMI medium (ovarian) and DMEM (human lung cells) supplemented with 10% fetal calf serum, in the presence of penicillin, streptomycin. The resistance of A2780cis cells to cisplatin was maintained by monthly treatment with 1 µM cisplatin for 4 days. Concentrated stock solutions of complexes were conserved at −20 °C (DMSO/Water) and freshly diluted in water just before the experiments. Cells were treated with various concentrations of platinum complexes at 37 °C under humidity and 5% CO2 conditions for 96 h. Cellular growth was quantified using the particle counter MOXI (VWR).

[26] = tested on: A2780cis cisplatin-resistant ovarian cancer cell line; test: Cell growth (proliferation), 96 h treatment; format: cell-based, human
Description: as §7

[27] = tested on: A2780 ovarian cancer cell line; test: Cell growth (proliferation), 96 h treatment; format: cell-based, human; details: for IC50: A2780, 96 h treatment
Description: as §7

[28] = tested on: all the tested G4s structures; design: method as in PMID 21528379; details: cited from earlier work

[C-]#Cc1ccccc1.[Pt+2].c1ccc(-c2cccc(-c3ccccn3)n2)nc1
binding [1]: no | binding [2]: no | binding [3]: no | binding [4]: no

[Cl-].[Pt+2].c1cc(-c2ccc3ccccc3n2)nc(-c2ccc3ccccc3n2)c1
% TO displacement [5]: > 80% | % TO displacement [6]: < 20% | % TO displacement [7]: > 80% | % TO displacement [8]: > 80% | % TO displacement [9]: > 80%

[Cl-].[Pt+2].c1ccc(-c2cccc(-c3ccccn3)n2)nc1
ΔTm [1]: < 10 °C | ΔTm [2]: < 10 °C | ΔTm [3]: < 10 °C | binding [10]: yes | ΔTm [4]: < 10 °C

C[n+]1cc(NC(=O)c2ccc3ccc4ccc(C(=O)Nc5cc6ccccc6[n+](C)c5)nc4c3n2)cc2ccccc21 [PhenDC3, reference compound]
% of TOPRO3 displacement at 1 µM of ligand [11]: 88% | % of TOPRO3 displacement at 1 µM of ligand (c-myc G4 [12]): 73% | % of TOPRO3 displacement at 1 µM of ligand [13]: 85% | % of PhenDV displacement at 1 µM of ligand [14]: 100% | binding [15]: yes | % of TO displacement at 1 µM of ligand [16]: 90% | % of TO displacement at 1 µM of ligand (c-myc G4 [17]): 96% | % of TO displacement at 1 µM of ligand [18]: 95% | % of PhenDV displacement at 1 µM of ligand [19]: 99% | % of PhenDV displacement at 1 µM of ligand (c-myc G4 [20]): 85% | % of PhenDV displacement at 1 µM of ligand [21]: 92% | % of TO displacement at 1 µM of ligand [22]: 95% | % of TOPRO3 displacement at 1 µM of ligand [22]: 83%

F[P-](F)(F)(F)(F)F.[Pt+][C]#Cc1ccccc1.c1ccc(-c2cccc(-c3ccccn3)n2)nc1 [Pt(PA)-tpy, Phenylethylny-(2,6-bis(pyridin-2-yl)pyridine)-platinum(II) Hexafluorophosphate]
% of PhenDV displacement at 1 µM of ligand [14]: 34% | % of TO displacement at 1 µM of ligand [16]: 37% | % of TO displacement at 1 µM of ligand (c-myc G4 [17]): 59% | % of TO displacement at 1 µM of ligand [18]: 55% | ∆Tm (ligand-induced stabilization, FRET-melting) [23]: complete lack of stabilization properties; also recorded: no stabilization | % of PhenDV displacement at 1 µM of ligand [19]: 13% | % of PhenDV displacement at 1 µM of ligand (c-myc G4 [20]): 2% | % of PhenDV displacement at 1 µM of ligand [21]: 20% | TO-PRO-3 displacement [24]: weak displacement | % of TO displacement at 1 µM of ligand [22]: 52% | % of TOPRO3 displacement at 1 µM of ligand [22]: 3% | IC50 [25]: 120 nM | IC50 [26]: 50 nM | Resistance Factor (IC50ratio A2780cis/A2780) [26]: 0.6 | IC50 [27]: 80 nM | IC50 in words ([27]; A2780 cell lines): active at nM concentration

CN1/C(=C/C=C/c2cc[n+](CCC[N+](C)(C)C)c3ccccc23)Sc2ccccc21.[I-].[I-] [TO-PRO-3]
affinity constants towards all the tested G4s structures (Ka) [28]: ~ 10^6 M^−1

N.N.[Cl][Pt][Cl] [cisplatin, reference compound]
IC50 [25]: 200 nM | Resistance Factor (IC50ratio A2780cis/A2780) ([26]; 96 h treatment): 9.1 | IC50 ([26]; A2780cis, 96 h treatment): 3000 nM | IC50 [27]: 330 nM

From paper PMC6385020 (Molecules, 2019)
